Legend:
[1] = tested on: Bovine aortic endothelial cells (BAEC); experiment: Confocal imaging of Fe2+ in BAEC cells; assay type: cell-based; conditions: for fluorescence of cells with sensor only / fluorescence of cells treated with Fe^2+ then Bpy: 10 μM sensor; for fluorescence of cells treated with Fe^2+ then Bpy: 100 μM Fe^2+ overnight, versus Fe^2+ supplement; for fluorescence of cells treated with Fe^2+ then Bpy / fluorescence of Bpy-treated cells: 1 mM Bpy; for fluorescence of Fe^2+-treated cells versus unsupplemented: 100 μM ferrous ammonium sulfate overnight, then 10 μM sensor 30 min; for fluorescence of Bpy-treated cells: versus control cells
Description: Bovine aortic endothelial cells BAEC cells, at an approximately density of 1.3 million/ml in complete EBM medium, were incubated with 100 μM ferrous ammonium sulfate (FAS, Fe (NH4)2(SO4)2 from a 10 mM stock solution) for overnight at 37° C. in a humid atmosphere of 5% CO2 and then the cells were washed with fresh EBM medium to remove excess Fe^2+. Then cells were incubated with Rh101D (10 μM, from 500 μM stock solution in DMF) at 37° C. for 30 min and then cells were washed with EBM media and then imaged. In addition, some cells were treated firstly with 100 μM Fe^2+ overnight and then the cells were washed with fresh EBM medium. For chelation experiments, Fe^2+-loaded cells or untreated cells were incubated with 1 mM 2,2′-bipyridyl (Bpy) at 37° C. for 30 min, then sensor was added followed by washing with the media, and then imaging was done. Controls were imaged without incubation with Fe^2+ or 2,2′-bipyridyl. HCT-116, a human colon adenocarcinoma cell line were used for concentration determination of Fe^2+ with the help of the ratiometric sensor Rh101D. HCT-116 were maintained in McCoy's 5A medium supplemented with 10% fetal bouvine serum and 5% antibiotic antimycotic in a 5% CO2 atmosphere at 37° C. Cultures were divided 1:2 every 48 h to an approximate cell density of 1.21 million cells/ml and used for experiments after 24 h. All experiments were performed with cells in the logarithmic growth phase.
A Zeiss LSM 710 laser-scanning confocal microscope system was used for cell imaging experiments in collaboration with a person in the lab. 40× oil-immersion objective lens were used to perform all the experiments. For imaging with the Rh101D sensor, excitation wavelength of the laser was 543 nm and emissions were collected over the range 545-625 nm. For images with MitoTracker Green FM, LysoTracker Deep Red, excitation wavelengths recommended by the manufacturer were 488 nm for MitoTracker, 633 nm for LysoTracker. Emissions were integrated at 492-535 nm (MitoTracker), 650-800 nm (LysoTracker), respectively.
The ability of Rh101D to detect Fe^2+ in live bovine aortic endothelial cells (BAEC) was investigated by confocal microscopy. […] For Fe^2+ repleting conditions, live BAEC cells were incubated with 100 μM of ferrous ammonium sulfate (Fe (NH4)2(SO4)2) at 37° C. for overnight followed by washing with EBM medium to remove excess Fe^2+ and then 10 μM of Rh101D was added to the culture media and was incubated at 37° C. for 30 min. […] For Fe^2+-depleting conditions, 2,2-bipyridyl (Bpy) which is known to be a selective Fe^2+-chelator was used to chelate Fe^2+[33]. […] This fluorescent intensity is almost the same as that of cells without Fe^2+ or Bpy treatment.
To explore this, the distribution of exchangeable Fe^2+ pools in live BAEC cells were further investigated using Rh101D, together with colocalization experiments using other dyes—MitoTracker Green FM (a green fluorescent dye which localizes to mitochondria in live cells regardless of mitochondrial membrane potential) and LysoTracker Deep Red (a fluorescent dye that stains acidic compartments such as endosomes and lysosomes in live cells). BAEC cells (without Fe^2+ treatment) were treated with Rh101D, MitoTracker Green FM, and […].
Bovine aortic endothelial cells (BAEC) were grown at 37° C. in a humid atmosphere of 5% CO2 atmosphere in Endothelial Basal Medium (EBM, Lonza) supplemented with 5% fetal bovine serum (FBS, ATCC). Cultures were divided into 1:2 every 48 h to an approximate cell density of 1.3 million cells/ml and used for experiments after 24 h.
A Zeiss LSM 710 laser-scanning confocal microscope system was used for cell imaging experiments in collaboration with a person in the lab. 40× oil-immersion objective lens were used to perform all the experiments. For imaging with the NIRh-Fret sensor, excitation wavelength of the laser was 633 nm and emissions were collected over the range 650-850 nm. […]

[2] = tested on: zebrafish; experiment: Zebrafish confocal imaging of free Fe2+; assay type: in vivo
Description: Embryos were collected from natural spawning and raised up in embryo medium (M. Santra, et al. Chem. Commun., 2009, 10, 2115). Zebrafish mutant strain Casper was utilized because it lacks pigment, allowing better visualization (J. A. Lister, et al., Development, 1999, 126, 3757). Zebrafish embryos at 6 days post fertilization (dpf) were incubated with 10 μM NIRh-Fret in embryo media for 1 h at 28° C. In addition, iron (II) loaded zebrafish (100 μM Fe (NH4)2(SO4)2 for 8 hours incubation) were incubated with 10 μM NIRh-Fret in embryo media for 1 h at 28° C. The treated zebrafish were imaged by a LSM710 confocal microscope.
The ability of NIRh-Fret to detect free Fe^2+ in zebrafish was further investigated using confocal microscopy. […] For Fe^2+ replete conditions, live zebrafish were incubated with 100 μM of ferrous ammonium sulfate (Fe (NH4)2(SO4)2) at 28° C. for 8 h followed by washing with E3 medium to remove excess Fe^2+ and then 10 μM of NIRh-Fret was added to the culture media and was incubated at 28° C. for 30 min.
In addition, the red-colored region was observed as a well-localized red round spot, being the intestine region of the 6-days-old zebrafish.

[3] = Solubility of sensor noted in NMR studies; assay type: physicochemical; conditions: NMR sample solution
From the text: The binding site of Fe^2+ on Rh101D was investigated by 2D NMR. […] COSY NMR spectra are of sufficient resolution for the assignment of the peaks in the aromatic region (FIG. 44). After adding Fe^2+ to Rh101D, all the ^1H NMR signals were broadened.
In order to probe the binding site of Fe^2+ on the NIRh-Fret sensor, 1D and 2D ^1H NMR of the sensor NIRh-Fret was investigated first. […] The assignment of the ^1H NMR peaks was based on 2D ^1H-^1H COSY spectra.

Compound	fluorescence of cells with sensor only [1]	fluorescence of cells treated with Fe^2+ then Bpy [1]	fluorescence of Fe^2+-treated cells versus unsupplemented [1]	fluorescence of Bpy-treated cells [1]	fluorescence of Fe^2+-treated zebrafish versus unsupplemented ([2]; 100 μM ferrous ammonium sulfate 8 h, then 10 μM NIRh-Fret 30 min)	fluorescence of zebrafish with sensor only ([2]; 6-days-old zebrafish, 10 μM NIRh-Fret)	solubility [3]
CCN(CC)c1ccc2c(c1)OC1=C(CCC/C1=C\C=C1\N(C)c3ccccc3C1(C)C)C21c2ccccc2C(=O)N1/N=C\C=C\c1ccc(N(C)C)cc1 (stereo not drawn) [NIRh-Fret, (E)-6′-(diethylamino)-2-(((1Z,2E)-3-(4-(dimethylamino)phenyl)allylidene)amino)-4′-(2-((E)-1,3,3-trimethylindolin-2-ylidene)ethylidene)-1′,2′,3′,4′-tetrahydrospiro[isoindoline-1,9′-xanthen]-3-one]	weak fluorescence	marked decrease in fluorescent intensity	significant increase in fluorescent signals	decrease in fluorescence intensity	significant increase in fluorescent signals	weak fluorescence	limited solubility
CN(C)c1ccc(/C=C/C=N/N2C(=O)c3ccccc3C23c2cc4c5c(c2Oc2c3cc3c6c2CCCN6CCC3)CCCN5CCC4)cc1 [Rh101D]	weak fluorescence	marked decrease in fluorescent intensity	significant increase in fluorescent signals	decrease in fluorescence signal	–	–	limited solubility

Source: patent US11685741B2, “Fluorescent probes” (University of Massachusetts, priority 2017, dated 2023)
